Where “and” joins values, the source holds several entries; their conditions need not be identical. Equal values may be shown once. Marks after values point to notes of the source that are not given here.
Assay: Urinary excretion and metabolite profile by radiochromatography, dogs
Assay type: in vivo, beagle dogs
Conditions: single oral 30 mg/kg
Method: For each dog, urine and feces were collected separately, with urine collected on dry ice and feces collected at room temperature. Collections were from 0-8 and 8-24 hours for urine and 0-24 hours for feces. Urine and fecal samples were shipped on dry ice to Wyeth Research, Biotransformation Division (Collegeville, Pa.) for analysis. Fecal samples were homogenized in approximately five volumes (v/w) of water. Aliquots of approximately 0.2 grams of the homogenate were placed into combusto-cones, weighed and allowed to air dry. These samples were then oxidized and radioactivity content determined. The remaining urine samples and fecal homogenates were stored at −70° C. until metabolite analysis. Blood samples and fecal homogenates were oxidized in a Model 307 Tri-Carb sample oxidizer, using Carbosorb® E (6 mL) as trapping agent and PermaFluor® E^+ (10 mL) as scintillant. The background reading (average of control blood or fecal samples) was subtracted from each sample reading. Aliquots of urine and plasma were analyzed directly following the addition of 10 mL of Ultima Gold™ scintillation fluid.
Urine samples collected between 8 and 24 hours post-dose were analyzed for metabolite profiles. Aliquots of urine were centrifuged at 14000 rpm in an Eppendorf Model 5415C centrifuge for 10 minutes. The supernatant was transferred to a fresh tube and analyzed for radioactivity content and by HPLC for metabolite profiling. Selected samples were also analyzed by LC/MS to characterize the radioactive peaks.
Chromatographic analyses were performed with a Waters Alliance model 2690 HPLC system (Waters Corp., Milford, Mass.). It was equipped with a built-in autosampler and was in-line with a model 2487 tunable UV detector, set to monitor 225 nm, and a FloOne β Model 515 radioactivity flow detector (Perkin Elmer) with a 250 μL LQTR flow cell. The flow rate of Ultima Flow M scintillation fluid was 3 mL/min, providing a mixing ratio of scintillation cocktail to mobile phase of 3:1. Separation of the metabolite peaks was accomplished on a Phenomenex Luna C18(2) column, 250×4.6 mm, 5 micron (Phenomenex, Torrance, Calif.), using a linear gradient of two mobile phases, A and B. Mobile phase A was 10 mM ammonium acetate, pH 5.5, and mobile phase B was acetonitrile. The flow rate was 1 mL/min.

[1] = includes 0-8 and 8-24 hour time points, 30 mg/kg

Radioactivity as % of Dose in urine, Mean ± S.D. [1]: 74.8 ± 13.0^b %
Radioactivity as % of Dose in urine, individual dogs [1]: 85.4% and 63.0% and 86.6% and 64.0%
Radioactivity as % of Dose in urine, Mean ± S.D. (includes 0-8 and 8-24 hour time points, listed as [^14C]DVS, 30 mg/kg): 75%
Compounds Detected by Radiochromatography in urine, percent of total peaks, Mean ± S.D. (urine 8-24 hours post-dose): 5.8 ± 1.6%
Compounds Detected by Radiochromatography in urine, percent of total peaks, individual dogs (urine 8-24 hours post-dose, mean of 2 analyses, 30 mg/kg): 7.9% and 5.7% and 5.4% and 4.0%
Compound: CN(C)CC(c1ccc(O)cc1)C1(O)CCCCC1.O=C(O)CCC(=O)O (centres unmarked) [DVS, O-desmethylvenlafaxine succinate]
